Measurements as given in patent publication US11505533B2, “Metabolically stable N-acylaminooxadiazoles useful as antibacterial agents” (MICROBIOTIX, INC., priority 2017, dated 2022).
pIC50: −log10 of the molar value. In brackets after ≈: the same amount, converted by molar mass. Entries after “also recorded” stand apart in the source; their conditions may differ. Read-outs that look alike come from different tables or passages of the source.

Columns and labels:
trans-translation = conditions: dose response assay; Ramadoss et al., PNAS 2013; cited from earlier work
mammalian systems = conditions: even in the context of prolonged exposure; cited from earlier work
translation = conditions: specific inhibitor of trans-translation; cited from earlier work
[1] = Preliminary PK studies in mice; conditions: IV or IP dosing at 10 mg/kg, data not shown
[2] = Stability in liver microsomes in vitro; conditions: mouse or human liver microsomes in vitro; data not shown
[3] = test system: S. aureus (MRSA-1234547263, Cip-res); format: cell-based; conditions: Staphylococcus aureus, MRSA
MRSA-1094 (MDR) = format: cell-based; conditions: Staphylococcus aureus, MRSA
[4] = test system: S. aureus (ATCC 35556, spec, kan-res); format: cell-based; conditions: Staphylococcus aureus, ATCC35556
[5] = test system: S. aureus NRS-77 (spec-res); format: cell-based; conditions: Staphylococcus aureus, NRS77
[6] = test system: S. aureus WTBF-19 (MSSA. osteomyelitis isolate); format: cell-based; conditions: Staphylococcus aureus, MSSA
[7] = test system: S. aureus ATCC 25923 (MSSA. osteomyelitis isolate); format: cell-based; conditions: Staphylococcus aureus
MRSA USA 300 (BAA-1717) = format: cell-based; conditions: Staphylococcus aureus
MRSA N315 NRS-70 = format: cell-based; conditions: Staphylococcus aureus
S. pneumoniae 49619 = format: cell-based; conditions: Streptococcus pneumoniae
M. pneumoniae 15531 = format: cell-based; conditions: Mycoplasmoides pneumoniae
B. anthracis = assay: microbe, parasite or virus in culture; format: cell-based; conditions: Bacillus anthracis
[8] = test system: E. coli (700, TolC+) efflux pos; format: cell-based; conditions: Escherichia coli
N. gonorrhoeae 49226 = format: cell-based; conditions: Neisseria gonorrhoeae
[9] = test system: N. gonorrhoeae H041 (MDR including AZM and CTX); format: cell-based; conditions: Neisseria gonorrhoeae
Yersinia pestis = assay: microbe, parasite or virus in culture; format: cell-based
Brucella suis = assay: microbe, parasite or virus in culture; format: cell-based
[10] = test system: Franciscella tularensis (Schu13); assay: organism not typed; format: cell-based
[11] = test system: Moraxella catarrhalis 8176; format: cell-based
[12] = test system: Legionella pneumophila 33153; assay: microbe, parasite or virus in culture; format: cell-based
[13] = test system: Haemophilus influenza 35056; format: cell-based
N. gonorrhoeae = assay: MIC90 determination, clinical isolates; format: cell-based; conditions: Neisseria gonorrhoeae
Franciscella tularensis = assay: organism not typed; format: cell-based
E. coli TolC(−) [14] = assay: TolC(−) MIC (NB); format: cell-based; conditions: Escherichia coli, read-out: TolC(−) MIC (μM)(NB)
Caco-2 permeability = format: in vitro ADME; conditions: human, direction not given
From the text: Res., 15(5): 726-733 (1998).

E. coli TolC(−) [15] = conditions: MIC in the presence of 10% fetal calf serum versus without
Mouse serum stability = conditions: 5 μM, 37° C., 4 h
[16] = Mammalian cell cytotoxicity
[17] = Microsomal stability + NADPH; conditions: mouse liver microsomes, 0.5 hr at 37° C.
[18] = Aqueous solubility, nephelometry; conditions: water, kinetic from dmso stock
[19] = Mouse serum binding, equilibrium dialysis

O=C(Nc1nnc(-c2ccc(F)cc2)o1)c1ccc(Cl)cc1 [KKL-35]
pIC50 (trans-translation): 6.05
cytotoxicity (mammalian systems): lack of cytotoxicity
effect on translation (translation): no effect on translation
bioavailability in mice [1]: extremely poor bioavailability; also recorded: undetectable in mouse serum at 6 h
stability in the presence of liver microsomes [2]: poor microsomal stability; also recorded: no detectable material after 5 min

O=C(Nc1nnc(-c2ccc(F)cc2)o1)N1CCc2ccccc2C1 [compound 4132, N-[5-(4-fluorophenyl)-1,3,4-oxadiazol-2-yl]-3,4-dihydroisoquinoline-2(1H)-carboxamide]
MIC [3]: 3.17 µg/mL (≈ 9.37 µM)
MIC (MRSA-1094 (MDR)): 3.17 µg/mL (≈ 9.37 µM)
MIC [4]: 4.23 µg/mL (≈ 12.5 µM)
MIC [5]: 3.17 µg/mL (≈ 9.37 µM)
MIC [6]: 4.23 µg/mL (≈ 12.5 µM)
MIC [7]: 6.34 µg/mL (≈ 18.7 µM)
MIC (MRSA USA 300 (BAA-1717)): 1.06 µg/mL (≈ 3.13 µM)
MIC (MRSA N315 NRS-70): 6.34 µg/mL (≈ 18.7 µM)
MIC (S. pneumoniae 49619; 49619): 33.8 µg/mL (≈ 99.9 µM)
MIC (M. pneumoniae 15531; 15531): > 33.8 µg/mL
MIC (B. anthracis): 4.06 µg/mL (≈ 12 µM)
MIC [8]: > 35 µg/mL
MIC (N. gonorrhoeae 49226; 49226): 0.18 µg/mL (≈ 0.532 µM)
MIC [9]: 0.13 µg/mL (≈ 0.384 µM)
MIC (Yersinia pestis): 8.46 µg/mL (≈ 25 µM)
MIC (Brucella suis): 4.23 µg/mL (≈ 12.5 µM)
MIC [10]: 0.13 µg/mL (≈ 0.384 µM)
MIC [11]: 0.034 µg/mL (≈ 0.1 µM)
MIC [12]: 8.46 µg/mL (≈ 25 µM)
MIC ([13]; Haemophilus, 35056): 16.9 µg/mL (≈ 50 µM)
MIC90 (N. gonorrhoeae): 0.54 µg/mL (≈ 1.6 µM)
MIC90 (Franciscella tularensis): 0.13 µg/mL (≈ 0.384 µM)
MIC (E. coli TolC(−) [14]): 7.87 µM (≈ 2.66 µg/mL)
Papp (Caco-2 permeability): 65.8 ×10⁻⁶ cm/s
Fold Serum Shift vs. TolC(−) (E. coli TolC(−) [15]): 12.7 fold
Serum Stability (% remain) (Mouse serum stability): >95%
CC50 [16]: 27.2 µM
Microsomal Stability + NADPH % degraded [17]: 27%
solubility [18]: 6.25 µM (≈ 2.11 µg/mL)

O=C(Nc1nnc(-c2ccc(F)cc2)o1)c1ccc(Oc2ccccc2)nc1 [compound 4237, 2-(6-phenoxynicotinamido)-5-(4-fluorophenyl)-1,3,4-oxadiazole]
MIC [3]: 2.35 µg/mL (≈ 6.24 µM)
MIC (MRSA-1094 (MDR)): 2.35 µg/mL (≈ 6.24 µM)
MIC [4]: 2.35 µg/mL (≈ 6.24 µM)
MIC ([5]; S. aureus NRS-77 (spec-res), read-out: MIC): 2.96 µg/mL (≈ 7.87 µM)
MIC [6]: 2.35 µg/mL (≈ 6.24 µM)
MIC [7]: 2.35 µg/mL (≈ 6.24 µM)
MIC (MRSA USA 300 (BAA-1717); MRSA USA 300 (BAA-1717), read-out: MIC): 2.1 µg/mL (≈ 5.58 µM)
MIC (MRSA N315 NRS-70; MRSA N315 NRS-70, read-out: MIC): 4.7 µg/mL (≈ 12.5 µM)
MIC (S. pneumoniae 49619; S. pneumoniae 49619, read-out: MIC): 4.7 µg/mL (≈ 12.5 µM)
MIC (M. pneumoniae 15531; M. pneumoniae 15531, read-out: MIC): 18.8 µg/mL (≈ 50 µM)
MIC ([8]; E. coli (700, TolC+) efflux pos, read-out: MIC): > 39 µg/mL
MIC (N. gonorrhoeae 49226; N. gonorrhoeae 49226, read-out: MIC): 0.75 µg/mL (≈ 1.99 µM)
MIC [10]: 0.75 µg/mL (≈ 1.99 µM)
MIC ([11]; read-out: MIC): 0.06 µg/mL (≈ 0.159 µM)
MIC [12]: 0.87 µg/mL (≈ 2.31 µM)
MIC ([13]; Haemophilus influenza 35056, read-out: MIC): 9.41 µg/mL (≈ 25 µM)
MIC90 (Franciscella tularensis): 1.51 µg/mL (≈ 4.01 µM)
MIC (E. coli TolC(−) [14]): 1.56 µM (≈ 0.588 µg/mL)
Papp (Caco-2 permeability): 12.7 ×10⁻⁶ cm/s
Serum Stability (% remain) (Mouse serum stability): >95%
CC50 [16]: > 100 µM
Microsomal Stability + NADPH % degraded [17]: 9%
solubility [18]: 6.25 µM (≈ 2.35 µg/mL)
fraction unbound [19]: 0.002
